Test results: ChEMBL document CHEMBL1201862, “PubChem BioAssay data set” (2004)
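48-hour exposure; five concentrations; linearly interpolated endpoints. At the GI50, growth is halved.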 The source made the active and inactive calls. Cut-off read from the data, not from the text of the source: active = GI50 up to about 1.1 µM and inactive = higher.

Columns and labels:
Experiment in all cases: growth of human tumour cells (NCI), 48 h
EKVX = tested on: EKVX
KM12 = tested on: KM12
ACHN = tested on: ACHN
DLD-1 = tested on: DLD-1
NCI-H23 = tested on: NCI-H23
SNB-19 = tested on: SNB-19
CCRF-CEM = tested on: CCRF-CEM
KM-20L2 = tested on: KM-20L2
XF498 = tested on: XF498
OVCAR-5 = tested on: OVCAR-5
MOLT-4 = tested on: MOLT-4
DMS-273 = tested on: DMS-273
HCT-15 = tested on: HCT-15
HOP-18 = tested on: HOP-18
SK-MEL-28 = tested on: SK-MEL-28
RXF 393 = tested on: RXF 393
SNB-75 = tested on: SNB-75
SF-539 = tested on: SF-539
OVCAR-3 = tested on: OVCAR-3
TK-10 = tested on: TK-10
SF-295 = tested on: SF-295
IGROV-1 = tested on: IGROV-1
COLO 205 = tested on: COLO 205
HCC 2998 = tested on: HCC 2998
SK-OV-3 = tested on: SK-OV-3
RXF 631 = tested on: RXF 631
DMS-114 = tested on: DMS-114
SW-620 = tested on: SW-620
SF-268 = tested on: SF-268
A549 = tested on: A549
OVCAR-4 = tested on: OVCAR-4
HOP-62 = tested on: HOP-62
UO-31 = tested on: UO-31
OVCAR-8 = tested on: OVCAR-8
UACC-257 = tested on: UACC-257
SN12C = tested on: SN12C
UACC-62 = tested on: UACC-62
M14 = tested on: M14
Malme-3M = tested on: Malme-3M
U-251 = tested on: U-251
HL-60 = tested on: HL-60
NCI-H460 = tested on: NCI-H460
HT-29 = tested on: HT-29
SR = tested on: SR
RPMI-8226 = tested on: RPMI-8226
K562 = tested on: K562
LXFL 529 = tested on: LXFL 529
SK-MEL-2 = tested on: SK-MEL-2
NCI-H226 = tested on: NCI-H226
A498 = tested on: A498
SK-MEL-5 = tested on: SK-MEL-5
HOP-92 = tested on: HOP-92
LOX IMVI = tested on: LOX IMVI
HCT-116 = tested on: HCT-116
SNB-78 = tested on: SNB-78
786-0 = tested on: 786-0
M19-MEL = tested on: M19-MEL
CAKI-1 = tested on: CAKI-1
NCI-H522 = tested on: NCI-H522

Nc1nnc(O)c2c1c(I)cn2C1OC(CO)C(O)C1O (centres undefined)
GI50 (EKVX): 1.3 µM (inactive)
GI50 (KM12): 0.393 µM (active)
GI50 (ACHN): 0.592 µM (active)
GI50 (DLD-1): 0.082 µM (active)
GI50 (NCI-H23): 0.5 µM (active)
GI50 (SNB-19): 7.93 µM (inactive)
GI50 (CCRF-CEM): 0.129 µM (active)
GI50 (KM-20L2): 2.49 µM (inactive)
GI50 (XF498): 2.96 µM (inactive)
GI50 (OVCAR-5): 0.689 µM (active)
GI50 (MOLT-4): 0.0474 µM (active)
GI50 (DMS-273): 0.125 µM (active)
GI50 (HCT-15): 0.188 µM
GI50 (HOP-18): 3.05 µM (inactive)
GI50 (SK-MEL-28): 1.18 µM (inactive)
GI50 (RXF 393): 1.06 µM (active)
GI50 (SNB-75): 0.718 µM (active)
GI50 (SF-539): 0.526 µM (active)
GI50 (OVCAR-3): 0.0745 µM (active)
GI50 (TK-10): 3.01 µM (inactive)
GI50 (SF-295): 1.43 µM (inactive)
GI50 (IGROV-1): 0.643 µM (active)
GI50 (COLO 205): 0.708 µM (active)
GI50 (HCC 2998): 0.208 µM (active)
GI50 (SK-OV-3): > 100 µM (inactive)
GI50 (RXF 631): 0.295 µM (active)
GI50 (DMS-114): 1.43 µM (inactive)
GI50 (SW-620): 0.0904 µM (active)
GI50 (SF-268): 2.21 µM (inactive)
GI50 (A549): 2.07 µM (inactive)
GI50 (OVCAR-4): 1.3 µM (inactive)
GI50 (HOP-62): 2.5 µM (inactive)
GI50 (UO-31): 1.52 µM (inactive)
GI50 (OVCAR-8): 0.105 µM (active)
GI50 (UACC-257): 2.15 µM (inactive)
GI50 (SN12C): 0.284 µM (active)
GI50 (UACC-62): 3.12 µM (inactive)
GI50 (M14): 0.64 µM (active)
GI50 (Malme-3M): 0.778 µM (active)
GI50 (U-251): 1.09 µM (active)
GI50 (HL-60): 0.118 µM (active)
GI50 (NCI-H460): 0.0728 µM (active)
GI50 (HT-29): 0.122 µM (active)
GI50 (SR): 0.0466 µM (active)
GI50 (RPMI-8226): 0.35 µM (active)
GI50 (K562): 0.75 µM (active)
GI50 (LXFL 529): 0.646 µM (active)
GI50 (SK-MEL-2): 0.0226 µM (active)
GI50 (NCI-H226): 3.04 µM (inactive)
GI50 (A498): 5.56 µM (inactive)
GI50 (SK-MEL-5): 1.89 µM (inactive)
GI50 (HOP-92): 0.805 µM (active)
GI50 (LOX IMVI): 0.112 µM (active)
GI50 (HCT-116): 0.232 µM (active)
GI50 (SNB-78): 1.17 µM (inactive)

COc1ccc(S(=O)(=O)Nc2ccccc2C(=O)O)cc1
GI50 (786-0): > 100 µM (inactive)
GI50 (EKVX): > 100 µM (inactive)
GI50 (KM12): > 100 µM (inactive)
GI50 (ACHN): > 100 µM (inactive)
GI50 (DLD-1): > 100 µM (inactive)
GI50 (NCI-H23): > 100 µM (inactive)
GI50 (SNB-19): > 100 µM (inactive)
GI50 (CCRF-CEM): > 100 µM (inactive)
GI50 (KM-20L2): > 100 µM (inactive)
GI50 (XF498): > 100 µM (inactive)
GI50 (OVCAR-5): > 100 µM (inactive)
GI50 (MOLT-4): > 100 µM (inactive)
GI50 (DMS-273): > 100 µM (inactive)
GI50 (HCT-15): > 100 µM
GI50 (HOP-18): > 100 µM (inactive)
GI50 (SK-MEL-28): > 100 µM (inactive)
GI50 (RXF 393): > 100 µM (inactive)
GI50 (SNB-75): 68.1 µM (inactive)
GI50 (SF-539): > 100 µM (inactive)
GI50 (OVCAR-3): > 100 µM (inactive)
GI50 (TK-10): > 100 µM (inactive)
GI50 (SF-295): > 100 µM (inactive)
GI50 (IGROV-1): > 100 µM (inactive)
GI50 (COLO 205): > 100 µM (inactive)
GI50 (HCC 2998): > 100 µM (inactive)
GI50 (SK-OV-3): > 100 µM (inactive)
GI50 (RXF 631): > 100 µM (inactive)
GI50 (SW-620): > 100 µM (inactive)
GI50 (SF-268): > 100 µM (inactive)
GI50 (A549): > 100 µM (inactive)
GI50 (OVCAR-4): > 100 µM (inactive)
GI50 (UO-31): > 100 µM (inactive)
GI50 (OVCAR-8): > 100 µM (inactive)
GI50 (UACC-257): > 100 µM (inactive)
GI50 (SN12C): > 100 µM (inactive)
GI50 (UACC-62): > 100 µM (inactive)
GI50 (M19-MEL): > 100 µM (inactive)
GI50 (M14): > 100 µM (inactive)
GI50 (Malme-3M): > 100 µM (inactive)
GI50 (U-251): > 100 µM (inactive)
GI50 (HL-60): > 100 µM (inactive)
GI50 (NCI-H460): > 100 µM (inactive)
GI50 (HT-29): > 100 µM (inactive)
GI50 (RPMI-8226): > 100 µM (inactive)
GI50 (CAKI-1): > 100 µM (inactive)
GI50 (K562): > 100 µM (inactive)
GI50 (LXFL 529): > 100 µM (inactive)
GI50 (SK-MEL-2): > 100 µM (inactive)
GI50 (NCI-H226): > 100 µM (inactive)
GI50 (A498): > 100 µM (inactive)
GI50 (SK-MEL-5): > 100 µM (inactive)
GI50 (HOP-92): 55.8 µM (inactive)
GI50 (LOX IMVI): > 100 µM (inactive)
GI50 (NCI-H522): > 100 µM (inactive)
